Test results from publication PMC12903969, “Discovery of a Novel and Potent Kir4.1 Inhibitor as a Safe and Rapid‐Onset Antidepressant Agent in Mice” (Advanced Science, 2025).
Values joined by “and” are separate entries in the source; they are usually repeats but may differ in a detail not shown here. Identical values can stand only once. Like-named read-outs stand apart in the source and are kept apart here.

Tests used:
[1] = target: T1, 5-HTT (serotonin transporter, SERT) (Homo sapiens, UniProt P31645); test: 5-HTT functional assay (fluorescent neurotransmitter transporter uptake); type: cell-based; parameters: SERT inhibition, replicates: unit not given here
T1 construct: expressed in transfected cells
T1 sequence (P31645 whole entry): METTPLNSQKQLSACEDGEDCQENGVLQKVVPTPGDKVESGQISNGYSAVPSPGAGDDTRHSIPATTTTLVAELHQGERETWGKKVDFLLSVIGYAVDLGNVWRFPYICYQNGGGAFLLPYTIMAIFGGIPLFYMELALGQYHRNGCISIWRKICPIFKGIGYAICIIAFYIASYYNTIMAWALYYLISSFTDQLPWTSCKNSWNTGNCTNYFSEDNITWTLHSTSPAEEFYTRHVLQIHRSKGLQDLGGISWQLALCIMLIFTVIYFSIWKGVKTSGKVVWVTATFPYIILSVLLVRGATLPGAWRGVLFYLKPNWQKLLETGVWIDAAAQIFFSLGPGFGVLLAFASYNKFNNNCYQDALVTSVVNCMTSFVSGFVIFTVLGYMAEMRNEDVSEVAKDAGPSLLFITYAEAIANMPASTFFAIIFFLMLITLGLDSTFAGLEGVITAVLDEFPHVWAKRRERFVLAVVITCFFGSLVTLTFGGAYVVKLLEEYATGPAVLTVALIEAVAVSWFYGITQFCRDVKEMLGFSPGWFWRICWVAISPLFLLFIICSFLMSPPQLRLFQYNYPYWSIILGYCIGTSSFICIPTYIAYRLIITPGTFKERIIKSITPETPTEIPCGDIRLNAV
Method: The 5‐HTT/DAT functional assays were commissioned by Elsevier Science and Technology Co., Ltd. (Beijing). A fluorescence‐based neurotransmitter assay was conducted using a Neurotransmitter Transporter Uptake Assay Kit (Molecular Devices, R8174), according to the manufacturer's protocol. Flp‐in T‐rex 293 cells transiently expressing the human norepinephrine transporter and HEK293 cells stably expressing the human dopamine or serotonin transporters were seeded in PDL‐coated 384‐well plates and incubated overnight. Subsequently, the medium was removed, and the cells were treated with 16 µL of compounds diluted in assay buffer for 0.5 h at 37 °C. Centanafadine and 0.1% DMSO served as positive and negative controls, respectively. Then, 16 µL of dye mix prepared in 1× Hanks’ Balanced Salt Solution was added to each well and incubated at 37 °C for 1 h. Finally, the data point was acquired via a fluorescence plate reader with excitation at 450 nm and emission at 528 nm.

[2] = target: T2, GluN1/GluN2B NMDA receptor (Homo sapiens, UniProt Q05586+Q13224); test: Patch clamp of GluN1/GluN2B NMDA receptors in stable HEK293T cells; type: cell-based
T2 construct: expressed in transfected cells
T2 sequence (Q13224 27-1484, other chains not shown): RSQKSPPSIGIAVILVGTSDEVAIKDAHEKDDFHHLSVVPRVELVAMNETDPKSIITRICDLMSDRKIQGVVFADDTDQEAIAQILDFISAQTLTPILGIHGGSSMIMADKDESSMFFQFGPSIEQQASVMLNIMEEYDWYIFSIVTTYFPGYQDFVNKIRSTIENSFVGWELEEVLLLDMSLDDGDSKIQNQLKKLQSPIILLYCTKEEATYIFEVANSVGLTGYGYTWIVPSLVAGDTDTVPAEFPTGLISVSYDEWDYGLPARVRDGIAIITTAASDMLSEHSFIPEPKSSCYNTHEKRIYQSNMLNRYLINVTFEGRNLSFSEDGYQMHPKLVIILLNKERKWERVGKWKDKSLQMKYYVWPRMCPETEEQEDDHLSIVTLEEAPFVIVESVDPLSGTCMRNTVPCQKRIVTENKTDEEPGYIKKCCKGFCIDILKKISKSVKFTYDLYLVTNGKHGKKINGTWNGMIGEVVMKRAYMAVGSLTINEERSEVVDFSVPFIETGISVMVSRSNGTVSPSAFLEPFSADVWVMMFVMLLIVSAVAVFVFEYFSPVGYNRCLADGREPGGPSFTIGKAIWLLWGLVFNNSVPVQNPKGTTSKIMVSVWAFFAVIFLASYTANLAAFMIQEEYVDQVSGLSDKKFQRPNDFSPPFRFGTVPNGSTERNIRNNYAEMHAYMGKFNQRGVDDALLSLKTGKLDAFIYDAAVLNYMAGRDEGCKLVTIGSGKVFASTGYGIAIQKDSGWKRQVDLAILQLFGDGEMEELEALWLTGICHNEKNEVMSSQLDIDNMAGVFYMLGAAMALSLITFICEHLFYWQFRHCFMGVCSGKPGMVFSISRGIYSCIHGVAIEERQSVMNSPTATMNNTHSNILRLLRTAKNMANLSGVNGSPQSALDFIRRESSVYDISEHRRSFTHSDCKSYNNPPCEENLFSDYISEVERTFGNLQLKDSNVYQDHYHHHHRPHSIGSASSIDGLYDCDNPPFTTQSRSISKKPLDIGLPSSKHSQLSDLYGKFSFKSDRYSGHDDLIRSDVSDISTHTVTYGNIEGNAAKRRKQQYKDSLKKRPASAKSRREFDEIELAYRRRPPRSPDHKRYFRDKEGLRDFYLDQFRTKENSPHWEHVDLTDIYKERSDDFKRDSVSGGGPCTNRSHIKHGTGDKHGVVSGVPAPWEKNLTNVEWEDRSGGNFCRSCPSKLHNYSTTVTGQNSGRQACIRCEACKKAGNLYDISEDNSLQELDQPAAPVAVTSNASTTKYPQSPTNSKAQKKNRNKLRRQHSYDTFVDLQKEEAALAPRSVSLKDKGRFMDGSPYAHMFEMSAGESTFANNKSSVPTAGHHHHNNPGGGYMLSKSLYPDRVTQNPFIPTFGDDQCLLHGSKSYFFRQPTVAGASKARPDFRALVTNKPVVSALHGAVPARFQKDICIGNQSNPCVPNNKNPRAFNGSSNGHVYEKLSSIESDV
Excerpt: For recording of GluN1/GluN2B NMDA receptors, HEK293T cells stably expressing GluN1 and GluN2B subunits were voltage‐clamped at −60 mV. […] The pipette solution contained (in mM):115 CsF, 10 CsCl, 10 HEPES and 10 BAPTA (pH 7.2 adjusted by CsOH). The bath solution contained (in mM): 140 NaCl, 2.8 KCl, 1 CaCl2, 10 HEPES and 20 sucrose (pH 7.4 adjusted with NaOH).

[3] = target: T3, hERG (Homo sapiens, UniProt Q12809); test: hERG inhibition (QPatch, CHO-hERG cells); type: cell-based
T3 construct: expressed in transfected cells; host or cells: CHO-hERG
T3 sequence (Q12809 whole entry): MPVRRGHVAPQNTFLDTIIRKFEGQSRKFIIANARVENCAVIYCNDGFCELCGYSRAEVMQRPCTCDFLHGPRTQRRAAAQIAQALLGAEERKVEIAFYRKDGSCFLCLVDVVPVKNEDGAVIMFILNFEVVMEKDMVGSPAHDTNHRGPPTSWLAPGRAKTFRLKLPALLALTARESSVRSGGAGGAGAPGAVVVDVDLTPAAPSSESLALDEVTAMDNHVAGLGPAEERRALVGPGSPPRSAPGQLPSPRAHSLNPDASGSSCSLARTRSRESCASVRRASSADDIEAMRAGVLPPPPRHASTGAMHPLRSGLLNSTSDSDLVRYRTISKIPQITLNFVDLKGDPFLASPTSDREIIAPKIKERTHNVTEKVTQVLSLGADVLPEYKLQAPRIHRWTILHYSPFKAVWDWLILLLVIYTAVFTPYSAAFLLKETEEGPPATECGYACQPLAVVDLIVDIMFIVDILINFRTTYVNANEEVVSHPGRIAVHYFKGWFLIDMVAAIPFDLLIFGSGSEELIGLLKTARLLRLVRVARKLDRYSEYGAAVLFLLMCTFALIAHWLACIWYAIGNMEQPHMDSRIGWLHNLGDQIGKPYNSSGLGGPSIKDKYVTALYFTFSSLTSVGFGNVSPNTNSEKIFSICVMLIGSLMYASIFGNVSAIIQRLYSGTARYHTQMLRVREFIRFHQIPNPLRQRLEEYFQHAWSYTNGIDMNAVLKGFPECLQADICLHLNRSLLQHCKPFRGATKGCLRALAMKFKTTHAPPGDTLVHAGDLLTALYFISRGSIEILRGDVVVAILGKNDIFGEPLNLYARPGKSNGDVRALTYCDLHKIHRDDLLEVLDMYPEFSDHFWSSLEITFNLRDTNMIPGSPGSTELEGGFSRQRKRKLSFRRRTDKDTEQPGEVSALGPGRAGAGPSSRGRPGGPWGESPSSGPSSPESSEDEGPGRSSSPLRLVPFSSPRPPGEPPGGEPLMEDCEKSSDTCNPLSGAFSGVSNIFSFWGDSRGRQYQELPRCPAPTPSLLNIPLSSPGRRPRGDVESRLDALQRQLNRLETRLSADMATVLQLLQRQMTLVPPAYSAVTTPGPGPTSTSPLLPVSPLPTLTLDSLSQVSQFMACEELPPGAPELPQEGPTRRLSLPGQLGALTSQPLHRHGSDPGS
Method: CHO‐hERG cells were cultured to 60–80% confluency in 175‐cm^2 flasks, washed with PBS, and digested with detachin. After centrifugation, the cells were resuspended in medium at 2–5×10^6 mL^−1. Patch‐clamp recordings were performed using a QPatch with extracellular solution (140 NaCl, 5 KCl, 2 CaCl2, 1 MgCl2, 10 HEPES, 10 glucose, pH 7.4) and intracellular solution (145 KCl, 1 MgCl2, 5 EGTA, 10 HEPES, 5 Mg‐ATP, pH 7.3). Cells were clamped at −80 mV, stimulated with a 50 ms pre‐pulse to −50 mV, followed by 2 s depolarization to +40 mV, and 2 s repolarization to −50 mV, repeated every 5 s. After baseline recording, the test compound at various concentrations or 300 nM cisapride (positive control) was applied.

[4] = Brain penetration (plasma and brain concentration, LC-MS/MS); type: in vivo, mice; conditions: for Kp at 1 h / concentration at 1 h: male, C57BL/6J, mouse; for Kp at 1 h: brain and plasma, read-out: Brain/Plasma concentration ratio; for concentration at 1 h: 1 h post-dosing
Method: Male C57BL/6J mice were used for both blood–brain penetration and plasma/tissue distribution studies, with mice assigned to three groups: 10 mg kg^−1 JX3212 (n = 3), 20 mg kg^−1 JX3212 (n = 3) for blood–brain penetration, and 10 mg kg^−1 JX3212 for plasma/tissue distribution (all administered via intraperitoneal injection), where mice in the blood–brain penetration groups were fasted for 12 h prior to drug administration and 2 h post‐administration; 1 h after drug administration, 0.2 mL of blood was collected from the retro‐orbital/orbital venous plexus into 1.5 mL heparinized tubes, centrifuged at 11 000 rpm for 5 min to obtain plasma (stored at −80 °C for blood–brain penetration groups), while whole brains were excised for blood–brain penetration groups and whole brains plus kidneys (rinsed with physiological saline, blotted dry on filter paper, and accurately weighed) for the plasma/tissue distribution group; plasma samples (20 µL) were mixed with 20 µL internal standard solution and 300 µL acetonitrile for protein precipitation, vortexed for 15 min, centrifuged at 3700 rpm for 15 min at 4 °C, and the supernatant was collected, whereas brain and kidney samples were homogenized in acetonitrile at 10× tissue weight (8000 rpm, 3 × 30 s), sonicated for 5 min, and processed identically to plasma samples; the concentrations of JX3212 in plasma and tissues were quantified by liquid chromatography–tandem mass spectrometry (LC−MS/MS), with lower limits of quantification set to 50 ng mL^−1 for plasma and 50 ng g^−1 for brain tissue.

[5] = system: mice; test: Novel object recognition test (NOR); type: in vivo; conditions: chronic 10 mg kg−1 per day
Method: This test was designed to assess memory in rodents. The mice were individually exposed to familiar and novel objects. The test consists of three phases: habituation, training, and retention. During habituation, each animal freely traversed an empty cubic arena (≈40 cm per side) for 5 min, then was returned to its home cage. In the subsequent training phase, two identical rectangular objects were fixed 10 cm from opposite walls, and the mouse, introduced with its snout directed toward the center of the distal wall, was allowed to investigate the objects for 5 min. One hour later, in the retention phase, one of the familiar objects was exchanged for a geometrically distinct but comparably sized novel object, and exploration was recorded for 5 min. The positions of familiar and novel objects were systematically randomized across trials to prevent spatial bias. Object exploration was quantified as the duration of direct nose/mouth orientation toward objects within ≤ 2 cm, excluding instances of turning away or sitting on objects. Recognition memory was assessed using the discrimination ratio, calculated as N/(N + F) × 100%, where N represents the exploration time of the novel object and F denotes the exploration time of the familiar object.

[6] = system: mice; test: Treadmill test (TT); type: in vivo; conditions: chronic 10 mg kg−1 per day
Method: This test was designed to quantify locomotor endurance in rodents. The time (300 s) and speed (maximum: 30 rpm) parameters for the treadmill were set using a digital panel and the mice were placed in lanes. Gentle electrical probes (0.3 mA) served as motivational stimuli. Total distance traveled was automatically recorded using rotary encoder integration.

[7] = mice, 10 mg/kg i.p., 1 h, 10 mg/kg
[8] = mice, 20 mg/kg i.p., 1 h, 20 mg/kg

c1ccc2c(c1)oc1ccc(Nc3ccnc(NCCCN4CCOCC4)n3)cc12 [JX3212, N^4-(dibenzo[b,d]furan-2-yl)-N^2-(3-morpholinopropyl)pyrimidine-2,4-diamine]
IC50 [1]: 6.45 µM
SERT inhibition, replicates ([1]; concentration 3): 13.3 and 7.67
SERT inhibition, replicates ([1]; concentration 10): 17.62 and 13.2
SERT inhibition, replicates ([1]; concentration 30): 16.11 and 14.3
SERT inhibition, replicates ([1]; concentration 100): 16.51 and 15.81
SERT inhibition, replicates ([1]; concentration 300): 18.52 and 16.01
SERT inhibition, replicates ([1]; concentration 1000): 49.66 and 31.98
SERT inhibition, replicates ([1]; concentration 3000): 51.87 and 29.87
SERT inhibition, replicates ([1]; concentration 10000): 69.95 and 46.05
SERT inhibition, replicates ([1]; concentration 30000): 87.23 and 70.86
SERT inhibition, replicates ([1]; concentration 100000 (unit not given)): 112.04 and 105.72
IC50 [2]: 23.7 µM
GLUN1/N2B inhibition, single recordings ([2]; concentration 10): 16.1554 and 31.4381 and 16.8072 and 24.8566
GLUN1/N2B inhibition, single recordings ([2]; concentration 30): 75.9494 and 77.336 and 42.6087
GLUN1/N2B inhibition, single recordings ([2]; concentration 50): 84.1069 and 85.4244 and 96.0913
GLUN1/N2B inhibition, single recordings ([2]; concentration 100 (unit not given)): 91.8425 and 90.7749 and 99.6717 and 97.1777
GLUN1/N2B inhibition, single recordings ([2]; concentration 300μ): 98.8477 and 99.3957 and 98.8626
IC50 [3]: 1.02 µM
Kp at 1 h ([4]; ip, 10 mg/kg, mice, 10 mg/kg i.p., 1 h): > 10
Kp at 1 h ([4]; ip, 20 mg/kg, mice, 20 mg/kg i.p., 1 h): 12.9 ± 1
concentration at 1 h ([4]; brain, intraperitoneal, 10 mg/kg, converted from 2533.3 ng/mL, read-out: brain concentration expressed as molar): ~6.3 µM
concentration at 1 h ([4]; brain, ip, 10 mg/kg, mice, 10 mg/kg i.p., read-out: Brain Calculated Concentration): 2530 ± 745 ng/mL
concentration at 1 h ([4]; brain, ip, 20 mg/kg, mice, 20 mg/kg i.p., read-out: Brain Calculated Concentration): 6690 ± 816 ng/mL
concentration at 1 h ([4]; plasma, ip, 10 mg/kg, mice, 10 mg/kg i.p., mean ± SD, read-out: Plasma Calculated Concentration): 234 ± 14.4 ng/mL
concentration at 1 h ([4]; plasma, ip, 20 mg/kg, mice, 20 mg/kg i.p., read-out: Plasma Calculated Concentration): 521 ± 63.3 ng/mL
Brain/Plasma concentration ratio [4, 7]: 10.72
logBB (blood–brain partitioning coefficient) [4, 7]: 1.02 ± 0.10 and > 1 and 1.02
Brain/Plasma concentration ratio [4, 8]: > 10
logBB [4, 8]: 1.11 ± 0.03 and > 1
NOR discrimination ratio vs vehicle (in words) [5]: showed no effects
treadmill running distance vs vehicle (in words) [6]: showed no significant effects
